# Earlier results in patent US20080064694A1, “Multi-Phase Release Methscopolamine Compositions” (Auriga Laboratories, Inc., priority 2006, published 2008).
# “Also recorded” adds a separate entry of the source.
# Conditions: following administration of methscopolamine bromide
substance,measurement,value
"[7(S)-( 1α, 2β, 4β, 5α, 7β)]-7-(3-hydroxy-1oxo-2-phenylpropoxy)-9,9-dimethyl-3-Oxo-9-azoniatricyclo[3.3.1.0]nonane [Methscopolamine bromide]",adverse reactions observed,"Tachycardia, palpitation; also recorded: Severe allergic reaction or drug idiosyncrasies including anaphylaxis; also recorded: Headaches, nervousness, mental confusion, drowsiness, dizziness; also recorded: Blurred vision, dilation of the pupil, cycloplegia, increased ocular tension, loss of taste; also recorded: Urinary hesitancy and retention; also recorded: Nausea, vomiting, constipation, bloated feeling; also recorded: Decreased sweating, urticaria and other dermal manifestations; also recorded: Xerostomia, weakness, insomnia, impotence, suppression of lactation"
